Where “and” joins values, the source holds several entries; their conditions need not be identical. Equal entries are not always repeated.
What was measured:
Format in all cases: cell-based, human
[1] = system: AML blasts; assay: Tyrosine phosphorylation inhibition with genistein, effect on HA-induced differentiation; details: genistein 1 hour, then HA five days
Experimental: (§1) Tyrosine phosphorylation inhibition with genistein: 2.10^5 AML blasts, suspended in 200 μl of RPMI 1640/10% FCS medium, were incubated in the presence of 50 nM/l of genistein (Calbiochem-Novabiochem, San Diego, Calif.) for 1 hour at 37° C., and then in the presence of HA for either one hour (for studies on cytokine transcript expression), or five days (for studies on differentiation).

[2] = system: AML blasts; assay: Trypan blue exclusion test; details: genistein then HA
Experimental: as §1

[3] = system: AML blasts; assay: Nitroblue tetrazolium (NBT) reduction test
Experimental: (§2) AML blast treatment with HA. Cell suspensions containing more than 95% AML blasts were deposited in triplicate at a rate of 2.105 cells per ml of RPMI 1640/10% FCS in tissue culture plates (Costar Corp., Cambridge, Mass.) with 96 wells each containing 150 μl of medium, and placed in incubation for 5 days in the presence of 20 μg/ml of hyaluronic acid (hHA, HA-6 or HA-12). HA was added at the specified concentrations and chondroitin sulphate was added to the negative controls. The plates were placed in an incubator at 37° C. in a humid atmosphere for […], and the cells underwent the differentiation studies as described below.
Nitroblue tetrazolium (NBT) reduction test: The ability to reduce NBT was measured using conventional techniques. Briefly, 2.10^5 cells were suspended in 900 μl of RPMI 1640 medium and were incubated in the presence of 0.2 μg/ml of 12-O-tetradecanoylephorbol-13-acetate (TPA, Sigma) and 0.5 mg/ml of NBT (Sigma) for 30 minutes at 37° C. The reaction was stopped at 4° C., the cells were cytocentrifuged and subjected to May-Grünwald-Giemsa staining agent. The percentage of cells containing black NBT reduction deposits was determined in duplicate, under an optical microscope, after examining 300 cells.

[4] = system: AML blasts; assay: AML blast differentiation induced by HA or anti-CD44 mAbs (NBT, CD14/CD15, cytology criteria)
Excerpt: Leukaemic peripheral blood or bone marrow samples were taken at the time of diagnosis, after informed consent, from 36 patients suffering from acute myeloid leukaemia (AML). The diagnosis of the disease and its classification comply with French-American-British (FAB) classification criteria.
Fresh or frozen AML cells were enriched by centrifugation according to the density gradient in the presence of Ficoll, and washed in RPMI 1640 medium containing 10% foetal calf serum (FCS). The frozen cells were thawed at ambient temperature in RPMI 1640 medium containing 50% FCS, and then washed twice in RPMI medium supplemented with 10% FCS. B and T lymphocytes were eliminated from all the samples, along with monocytes for the AML1/2 and AML3 samples. This elimination was performed by specific immunoadsorption of Dynabeads beads (Dynal, Oslo, Norway) coated with monoclonal antibodies directed against the specific surface antigens CD2 and CD19 (lymphocytes) and CD14 (monocytes), according to the manufacturer's instructions. In this way, cell suspensions containing more than 95% AML blasts were obtained.
as §2
Differentiation was detected by analysing 3 criteria: 1) the ability to produce an oxidation-reduction reaction in response to a phorbol ester: this oxidation-reduction reaction is detected with nitroblue tetrazolium NBT reduction, 2) the expression of specific antibodies for differentiation (specific CD14 for monocytes, and specific CD15 for granulocytes), and 3) specific cytological modifications. All these criteria are specific to normal differentiate granulocyte or monocyte cells.

[5] = system: AML blasts; assay: Flow cytometry analysis of CD14 and CD15 expression
Experimental: as §2
Flow cytometry analysis of CD14 and CD15 expression: the AML blasts were suspended at a rate of 10^5 blasts/ml of RPMI 1640 medium containing 0.02% bovine serum albumin and 0.02% […] NaN3, and were then incubated at 4° C. for 30 minutes in the presence of mAbs conjugated with fluorescein isothiocyanate (FITC), and directed against CD14 (5 μg/ml IgG2b, Coulter Immunology, Hialeah, Fla.) or directed against CD15 (1 μg/ml IgM, Becton Dickinson, San José, Calif.). The mAbs were used at saturation concentrations. The murine IgM and IgG2b conjugated with FITC were obtained from Coulter-Immunotech (Coulter-Immunotech Inc., Westbrook, Me.), and were used at a 1:50 dilution. The bonding of the mAbs directed against CD14 and CD15 was quantified by measuring, by flow cytometry, the cell fluorescence in relation to that of cells labelled with the IgG-FITC. The measurement was made using a FACSvantage (Becton Dickinson) equipped with an INNOVA70-4 argon ion laser (Coherent Radiation, Palo Alto, Calif.) set at 488 nm and operating at 500 mW. The flow cytometer was calibrated using fluorescent beads (Becton Dickinson). This measurement was made on 3000 cells.

[6] = system: AML blasts; assay: Cytological study (May-Grünwald-Giemsa staining)
Experimental: as §2
The cell smears, prepared in triplicate, were stained by May-Grünwald-Giemsa staining and their cytology was examined under an optical microscope.

[7] = system: intracellular tyrosine phosphorylations in AML blasts; assay: Protein phosphorylation analysis on tyrosine residue; details: AML5 blasts, 6D12-FITC flow cytometry
Experimental: Protein phosphorylation induction on tyrosine residue: HA-12 (50 μg/ml) was added at the time t=0 to 2.10^5 AML blasts suspended, at ambient temperature, in 200 μl of RPMI 1640 medium containing 10% FCS. At t=1 min, 5 min, 15 min and 30 min, 200 μl of Permeafix Ortho (Coulter-Immunotech Inc., Westbrook, Me.) was added to stop the phosphorylations and permeabilise the cells. After 40 minutes of incubation at ambient temperature, and three washes in PBS, the phosphorylated proteins on the tyrosine residue were labelled specifically with 6D12 mAb (used at 2 μg/ml conjugated with FITC, and the labelling intensity was measured by flow cytometry with reference to the isotype control (cells labelled with IgG1 conjugated with FITC), as described above.

[8] = system: M-CSF transcripts; assay: RT-PCR cytokine transcript expression study; details: out of 3 cases, 1 hour after HA treatment
Experimental: RT-PCR cytokine transcript expression study: the total RNA was extracted from 5.10^5 cells using Trizol reagent (Life Technologies, Cergy Pontoise, France), followed by a phenolchloroform extraction and isopropanol precipitation. One microgram of total RNA heated at 70° C. for 10 minutes was used as a matrix for the synthesis of the first strand of complementary DNA (cDNA), by adding reverse transcriptase and random hexamers (Life Technologies). The transcript of the glyceraldehyde phosphodehydrogenase (GADPH) housekeeping gene was used as an internal marker for the PCR reaction (0.24 kb amplification product). Equilibrated quantities of cDNA were used for the PCR amplification of the cytokine transcripts, the primers used for PCR were as follows: […]
The PCR protocol consisted of 30 cycles of 94° C. for 1 minute, 58° C. for 1 minute and 72° C. for 1 minutes, using a thermocycler (Perkin Elmercetus, Norwalk, Conn.) For each experiment, two negative controls were subject to all the steps.

[9] = Total number, 35 cases analysed

O=c1c(-c2ccc(O)cc2)coc2cc(O)cc(O)c12 [genistein]
effect on AML3 and AML5 differentiation induced by CD44 (HA treatment) [1]: inhibits this differentiation
cell viability [2]: greater than 95%

CC1=C(/C=C/C(C)=C/C=C/C(C)=C/C(=O)O)C(C)(C)CCC1 [RA, all-transretinoic acid, reference compound]
% NBT^+ cells (extreme values) ([3]; M3 (AML3) blasts): (RA: 47-90) %

hyaluronic acid [HA]
Number of cases of differentiation ([4]; AML1/2, 7 cases analysed, 20 μg/ml HA, 5 days): 5/7 and 5
Number of cases of differentiation ([4]; AML3, 16 cases analysed, 20 μg/ml HA, 5 days): 12/16 and 12
Number of cases of differentiation ([4]; AML4, 4 cases analysed, 20 μg/ml HA, 5 days): 3/4 and 3
Number of cases of differentiation ([4]; AML5, 8 cases analysed, 20 μg/ml HA, 5 days): 6/8 and 6
Number of cases of differentiation [4, 9]: 26
Number of cases of differentiation, as % of cases analysed [4, 9]: 74%
cases of AML in which it was not possible to induce differentiation ([4]; all AML patients (36)): 9/36
% NBT^+ cells, median value ([3]; AML1/2, 5 out of 7 cases): 22%
% NBT^+ cells in the cases as high as with all-transretinoic acid ([3]; AML3, 6 of the 12 responding cases): over 50%
% NBT^+ cells, median value ([3]; AML3, 12 out of 16 cases): 42%
% NBT^+ cells, median value ([3]; AML4): 55%
median % NBT^+ cells relative to controls ([3]; AML4): 3 times
% NBT^+ cells, median value ([3]; AML5, 6 out of 8 cases): 52%
% NBT^+ cells (extreme values) ([3]; M3 (AML3) blasts): 20%-80%
% NBT^+ cells (extreme values) ([3]; M4 (AML4) blasts): 43%-90%
% NBT^+ cells (extreme values) ([3]; M5 (AML5) blasts): 32%-70%
factor by which MFI values (CD14, CD15) multiplied ([5]; AML1/2): around 2
cases in which expression of both CD14 and CD15 increased ([5]; AML1/2, of the 8 cases): 6
increase of CD15 MFI values ([5]; AML3): approximately 3 fold
cases in which maturation was as marked as after all-transretinoic acid ([5]; AML3, of the 12 cases): 8
cases in which maturation was as marked as after all-transretinoic acid, % ([5]; AML3, of the 12 cases): 66%
number of samples in which the % of CD15^+ cells increased ([5]; AML3, out of 16 samples): 12
factor by which % of CD14 and CD15 positive cells multiplied ([5]; AML4): 2
factor by which MFI values (CD14, CD15) multiplied ([5]; AML4): 3
dose up to which differentiation intensity (CD14 MFI) is related to the dose ([5]; AML5 blasts, HA-12 (FIG. 3A)): up to 15 μg/ml
% CD15+ cells (extreme values) ([5]; M1/M2 (AML1/2) blasts): 22-100%
% CD15+ cells (extreme values) ([5]; M3 (AML3) blasts): 42-90%
% CD15^− cells median values ([5]; M3 (AML3) blasts): 78%
CD14 MFI value ([5]; one AML5 sample with CD14 in negative controls (102 in the negative controls)): up to 340 arbitrary units
cytological change after treatment ([6]; AML1/2 blasts): No cytological change was observed
cytological characteristics after treatment ([6]; AML3 blasts, 5 days): a segmented nucleus, a low nucleo-cytoplasmic ratio, rare nucleoles, some azurophilic granulations
cytological characteristics after treatment ([6]; AML5 blasts): a decrease in the nucleus/cytoplasm ratio, a decrease in the number of nucleoles, chromatin condensation, and irregular cytoplasmic contours
induction of intracellular tyrosine phosphorylations [7]: already induced after one minute of treatment
cases with M-CSF transcripts detected ([8]; M1/M2 AML): 1
cases with M-CSF transcript detected ([8]; M5 AML): 1
